Assay results as given in ChEMBL document CHEMBL1148794, “Structure-activity relationship of a series of inhibitors of monoacylglycerol hydrolysis--comparison with effects upon fatty acid amide hydrolase” (J Med Chem, 2007).

Experiments:
[1] = molecular target: T1, Fatty-acid amide hydrolase 1 (Rattus norvegicus, UniProt P97612); assay: (§1) Inhibition of FAAH in rat cerebellum membranes assessed as [3H]anandamide hydrolysis; format: cell membranes, Membrane
T1 sequence (P97612 whole entry): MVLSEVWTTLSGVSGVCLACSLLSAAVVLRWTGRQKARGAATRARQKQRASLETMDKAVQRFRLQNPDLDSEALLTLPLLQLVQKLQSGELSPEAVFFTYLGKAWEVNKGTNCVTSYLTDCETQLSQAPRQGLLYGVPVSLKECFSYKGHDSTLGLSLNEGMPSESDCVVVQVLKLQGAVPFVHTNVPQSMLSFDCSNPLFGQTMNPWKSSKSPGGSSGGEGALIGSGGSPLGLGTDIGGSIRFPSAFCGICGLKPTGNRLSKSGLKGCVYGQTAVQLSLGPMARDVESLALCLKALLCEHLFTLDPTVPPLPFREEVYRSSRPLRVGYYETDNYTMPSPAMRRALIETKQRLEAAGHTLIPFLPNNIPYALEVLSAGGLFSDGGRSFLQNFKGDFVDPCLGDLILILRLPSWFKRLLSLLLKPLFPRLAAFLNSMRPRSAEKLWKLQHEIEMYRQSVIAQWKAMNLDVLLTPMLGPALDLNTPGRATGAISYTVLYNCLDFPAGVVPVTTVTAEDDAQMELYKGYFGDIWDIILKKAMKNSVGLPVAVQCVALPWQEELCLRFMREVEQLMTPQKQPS

[2] = molecular target: T2, Fatty-acid amide hydrolase 1 (Rattus norvegicus) (UniProt P97612); assay: as §1; format: cell membranes; settings: Membrane
T2 sequence (whole entry): T1 sequence (P97612 whole entry)

[3] = molecular target: T3, Monoglyceride lipase (Rattus norvegicus) (UniProt Q8R431); assay: Inhibition of MGL in rat cerebellum cytosolic fractions assessed as [3H]2-oleoylglycerol hydrolysis at 100 uM; format: tissue-based
T3 sequence (whole entry): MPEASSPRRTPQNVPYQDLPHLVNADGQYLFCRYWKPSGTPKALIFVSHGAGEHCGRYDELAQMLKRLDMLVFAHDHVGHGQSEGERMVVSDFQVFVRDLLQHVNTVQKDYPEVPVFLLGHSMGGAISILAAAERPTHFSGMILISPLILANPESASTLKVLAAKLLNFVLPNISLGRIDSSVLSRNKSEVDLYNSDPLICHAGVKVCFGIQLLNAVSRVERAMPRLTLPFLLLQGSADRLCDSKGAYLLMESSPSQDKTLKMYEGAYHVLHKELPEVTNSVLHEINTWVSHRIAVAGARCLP

[4] = molecular target: T3, Monoglyceride lipase (Rattus norvegicus); assay: (§2) Inhibition of MGL in rat cerebellum membrane fractions assessed as [3H]2-oleoylglycerol hydrolysis; format: cell membranes
[5] = molecular target: T4, Monoglyceride lipase (Rattus norvegicus, UniProt Q8R431); assay: as §2; format: cell membranes
T4 sequence (Q8R431 whole entry): T3 sequence (whole entry)

[6] = molecular target: T3, Monoglyceride lipase (Rattus norvegicus); assay: (§3) Inhibition of MGL in rat cerebellum cytosolic fractions assessed as [3H]2-oleoylglycerol hydrolysis; format: tissue-based
[7] = molecular target: T4, Monoglyceride lipase; assay: as §3; format: tissue-based
[8] = molecular target: T3, Monoglyceride lipase (Rattus norvegicus); assay: Inhibition of MGL in rat cerebellum membrane fractions assessed as [3H]2-oleoylglycerol hydrolysis at 100 uM; format: cell membranes
[9] = molecular target: T2, Fatty-acid amide hydrolase 1 (Rattus norvegicus); assay: Inhibition of FAAH in rat cerebellum membranes assessed as [3H]anandamide hydrolysis at 100 uM; format: cell membranes; settings: Membrane

IC50 [1]	pI50 (-log10 of IC50 in M) [2]	inhibition [3]	Log I50 [4]	pI50 (-log I50, M) [6]	inhibition [8]	inhibition [9]	Compound	IC50 [5]	IC50 [7]
61 µM	4.22	40%	< 4	< 4	19%		O=C(OCC1CO1)c1cccc(-c2ccccc2)c1 (racemic)		
7.5 µM	5.13		< 4	4.1	38%		CCCCC/C=C\C/C=C\CCCCCCCC(=O)OCC1CCCCO1 (racemic)		73 µM
35 µM	4.45	43%	< 4	< 4	9%		O=C(OCC1CO1)c1ccc(-c2ccccc2)cc1 (racemic)		
18 µM	4.75	36%	< 4	< 4	49%		O=C(OCC1CCCCO1)c1cccc(-c2ccccc2)c1 (racemic)		
	< 4	29%	< 4	< 4	18%	5%	O=C(OCC1CO1)c1ccccc1-c1ccccc1 (racemic)		
	< 4	14%	< 4	< 4	0.2%	19%	O=C(OCC1CO1)c1ccccc1 (racemic)		
53 µM	4.28	53%	< 4	5.5	24%		O=C(OCC1CCCCO1)c1ccccc1 (racemic)		3 µM
10 µM	5	42%	< 4	< 4	36%	82%	CCCCCC/C=C\CCCCCCCC(=O)OCC1CCCCO1 (racemic)		
32 µM	4.49	43%	4.1	< 4			O=C(OCC1CCCCO1)c1ccc(-c2ccccc2)cc1 (racemic)	80 µM	
19 µM	4.73		< 4	4.64	33%		CC/C=C\C/C=C\C/C=C\CCCCCCCC(=O)OCC1CCCCO1 (racemic)		23 µM
43 µM	4.37	38%	< 4	< 4	47%		O=C(OCC1CCCCO1)c1ccccc1-c1ccccc1 (racemic)		

Further lines, the compound ahead of its results:

Compound	IC50 [1]	pI50 (-log10 of IC50 in M) [2]	inhibition [3]	Log I50 [4]	pI50 (-log I50, M) [6]	inhibition [8]	inhibition [9]	IC50 [5]	IC50 [7]
CCCCC/C=C\C/C=C\C/C=C\C/C=C\CCCC(=O)NC[C@@H]1CCCO1	69 µM	4.16	59%	4.1	5.5			70 µM	3.5 µM
CCCCC/C=C\C/C=C\C/C=C\C/C=C\CCCC(=O)NC[C@H]1CCCO1	99 µM	4.01		4.09	4.59			81 µM	25 µM
CCCCC/C=C\C/C=C\C/C=C\C/C=C\CCCC(=O)OCC1COC(C)(C)O1 (racemic)	98 µM	4		4	4.3			95 µM	45 µM
CC/C=C\C/C=C\C/C=C\CCCCCCCC(=O)OCC1CO1 (racemic)	1.6 µM	5.8		4.3	4.97			50 µM	11 µM
CCCCC/C=C\C/C=C\C/C=C\C/C=C\CCCC(=O)OC[C@@H]1CO1	12 µM			< 4	5.1				8 µM
CCCCCC/C=C\CCCCCCCC(=O)OCC1CO1 (racemic)	8.2 µM	5.09	84%	4.55	4.87			28 µM	13 µM
CCCCC/C=C\C/C=C\C/C=C\C/C=C\CCCC(=O)OCC1CCCCO1 (racemic)	51 µM	4.3		4.58	5.26			26 µM	5.6 µM
CCCCC/C=C\C/C=C\C/C=C\C/C=C\CCCC(=O)OC[C@H]1COC(C)(C)O1	28 µM	4.55		< 4	4.22	34%			60 µM
CCCCC/C=C\C/C=C\C/C=C\C/C=C\CCCC(=O)OC[C@H]1CO1	6 µM			< 4	5.2				6.3 µM
CCCCC/C=C\C/C=C\C/C=C\C/C=C\CCCC(=O)OC1CCOCC1	5.3 µM	5.3	62%	< 4	4.5	33%	63%		30 µM
CCCCC/C=C\C/C=C\C/C=C\C/C=C\CCCC(=O)OCC1CCCO1 (stereo not drawn)	33 µM	4.48		4.1	4.67			75 µM	21 µM
CCCCCCCC/C=C\CCCCCCCC(=O)OCC1CCCCO1 (racemic)	29 µM	4.53	12%	< 4	< 4	35%			
CCCCC/C=C\C/C=C\CCCCCCCC(=O)OCC1CO1 (racemic)						18%			
CCCCC/C=C\C/C=C\C/C=C\C/C=C\CCCC(=O)OC[C@@H]1COC(C)(C)O1	17 µM	4.76	46%	< 4	< 4	38%			
CCCCC/C=C\C/C=C\C/C=C\C/C=C\CCCC(=O)OCc1ccc2c(c1)OCO2	91 µM	4		< 4	4.35	3%			45 µM
CCCCC/C=C\C/C=C\C/C=C\C/C=C\CCCC(=O)OCC1CCOC1 (stereo not drawn)	11 µM	4.98		< 4	4.37	46%	78%		43 µM
CCCCC/C=C\C/C=C\C/C=C\C/C=C\CCCC(=O)NCC1CCCO1 (stereo not drawn)	56 µM	4.25		< 4	4.47	44%			34 µM
CCCCC/C=C\C/C=C\C/C=C\C/C=C\CCCC(=O)OCCC1OCC(C)(C)CO1	21 µM	4.68		4	4.57			99 µM	27 µM
CCCCCCCC/C=C\CCCCCCCC(=O)OCC1CO1 (racemic)	11 µM	4.96	6%	< 4	< 4	8%			
CCCCC/C=C\C/C=C\C/C=C\C/C=C\CCCC(=O)NCC1COC(C)(C)O1 (racemic)	90 µM	4.05	71%	< 4	4.8	45%			15 µM
CCCCC/C=C\C/C=C\C/C=C\C/C=C\CCCC(=O)OCC1CO1 (racemic)	12 µM			4.72				19 µM	
